Assay results published in PubChem BioAssay (NCI).
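Compound exposure: 48 hours, 5 concentrations, 96-well plates. GI50: concentration for 50% inhibition of growth. TGI: concentration producing complete growth inhibition.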

What was measured:
Test in all cases: inhibition of tumour cell growth, NCI panel, 48 h
SN12C renal = test system: SN12C renal
CCRF-CEM leukemia = test system: CCRF-CEM leukemia
U251 CNS = test system: U251 CNS
BT-549 breast = test system: BT-549 breast
MOLT-4 leukemia = test system: MOLT-4 leukemia
HOP-92 NSCLC = test system: HOP-92 NSCLC
MALME-3M melanoma = test system: MALME-3M melanoma
MDA-MB-468 breast = test system: MDA-MB-468 breast
SW-620 colon = test system: SW-620 colon
SNB-19 CNS = test system: SNB-19 CNS
COLO 205 colon = test system: COLO 205 colon
NCI-H460 lung = test system: NCI-H460 lung
HCC-2998 colon = test system: HCC-2998 colon
CAKI-1 renal = test system: CAKI-1 renal
DU-145 prostate = test system: DU-145 prostate
K-562 leukemia = test system: K-562 leukemia
HS 578T breast = test system: HS 578T breast
M14 melanoma = test system: M14 melanoma
SF-295 CNS = test system: SF-295 CNS
OVCAR-5 ovarian = test system: OVCAR-5 ovarian
SK-MEL-28 melanoma = test system: SK-MEL-28 melanoma
KM12 colon = test system: KM12 colon
LOX IMVI melanoma = test system: LOX IMVI melanoma
SF-268 CNS = test system: SF-268 CNS
SF-539 CNS = test system: SF-539 CNS
UACC-62 melanoma = test system: UACC-62 melanoma
OVCAR-3 ovarian = test system: OVCAR-3 ovarian
UO-31 renal = test system: UO-31 renal
786-0 renal = test system: 786-0 renal
PC-3 prostate = test system: PC-3 prostate
RPMI-8226 leukemia = test system: RPMI-8226 leukemia
NCI-H522 lung = test system: NCI-H522 lung
MCF7 breast = test system: MCF7 breast
HCT-116 colon = test system: HCT-116 colon
NCI-H226 lung = test system: NCI-H226 lung
HT29 colon = test system: HT29 colon
SNB-75 CNS = test system: SNB-75 CNS
A549 NSCLC = test system: A549 NSCLC
HCT-15 colon = test system: HCT-15 colon
UACC-257 melanoma = test system: UACC-257 melanoma
IGROV1 ovarian = test system: IGROV1 ovarian
EKVX NSCLC = test system: EKVX NSCLC
SK-MEL-5 melanoma = test system: SK-MEL-5 melanoma
NCI-H23 lung = test system: NCI-H23 lung
MDA-MB-435 = test system: MDA-MB-435
RXF 393 renal = test system: RXF 393 renal
MDA-MB-231 breast = test system: MDA-MB-231 breast
OVCAR-8 ovarian = test system: OVCAR-8 ovarian
ACHN renal = test system: ACHN renal
OVCAR-4 ovarian = test system: OVCAR-4 ovarian
SK-OV-3 ovarian = test system: SK-OV-3 ovarian
TK-10 renal = test system: TK-10 renal
HL-60(TB) leukemia = test system: HL-60(TB) leukemia
T-47D breast = test system: T-47D breast
A498 renal = test system: A498 renal
HOP-62 NSCLC = test system: HOP-62 NSCLC

SMILES: CCN(CC)c1ccnc(CNCCSC(c2ccccc2)(c2ccccc2)c2ccc(C)cc2)c1
- GI50 (SN12C renal): 2.4 µM
- TGI (SN12C renal): 6.29 µM
- GI50 (CCRF-CEM leukemia): 1.96 µM
- TGI (CCRF-CEM leukemia): 5.19 µM
- GI50 (U251 CNS): 2.14 µM
- TGI (U251 CNS): 6.02 µM
- GI50 (BT-549 breast): 1.9 µM
- TGI (BT-549 breast): 5.46 µM
- GI50 (MOLT-4 leukemia): 2.85 µM
- TGI (MOLT-4 leukemia): 7.28 µM
- GI50 (HOP-92 NSCLC): 1.62 µM
- TGI (HOP-92 NSCLC): 5.87 µM
- GI50 (MALME-3M melanoma): 1.68 µM
- TGI (MALME-3M melanoma): 3.13 µM
- GI50 (MDA-MB-468 breast): 1.83 µM
- TGI (MDA-MB-468 breast): 3.85 µM
- GI50 (SW-620 colon): 2.47 µM
- TGI (SW-620 colon): 6.86 µM
- GI50 (SNB-19 CNS): 3.13 µM
- TGI (SNB-19 CNS): 12 µM
- GI50 (COLO 205 colon): 1.84 µM
- TGI (COLO 205 colon): 3.39 µM
- GI50 (NCI-H460 lung): 1.98 µM
- TGI (NCI-H460 lung): 3.79 µM
- GI50 (HCC-2998 colon): 1.69 µM
- TGI (HCC-2998 colon): 3.07 µM
- GI50 (CAKI-1 renal): 3.11 µM
- TGI (CAKI-1 renal): 12.8 µM
- GI50 (DU-145 prostate): 2.92 µM
- TGI (DU-145 prostate): 8.29 µM
- GI50 (K-562 leukemia): 2.34 µM
- TGI (K-562 leukemia): 6.15 µM
- GI50 (HS 578T breast): 2.39 µM
- TGI (HS 578T breast): 7.84 µM
- GI50 (M14 melanoma): 1.84 µM
- TGI (M14 melanoma): 3.68 µM
- GI50 (SF-295 CNS): 1.59 µM
- TGI (SF-295 CNS): 3.01 µM
- GI50 (OVCAR-5 ovarian): 2.67 µM
- TGI (OVCAR-5 ovarian): 11.3 µM
- GI50 (SK-MEL-28 melanoma): 1.86 µM
- TGI (SK-MEL-28 melanoma): 4.16 µM
- GI50 (KM12 colon): 2.33 µM
- TGI (KM12 colon): 5.79 µM
- GI50 (LOX IMVI melanoma): 1.67 µM
- TGI (LOX IMVI melanoma): 3.09 µM
- GI50 (SF-268 CNS): 3.35 µM
- TGI (SF-268 CNS): 13 µM
- GI50 (SF-539 CNS): 1.87 µM
- TGI (SF-539 CNS): 3.52 µM
- GI50 (UACC-62 melanoma): 2.64 µM
- TGI (UACC-62 melanoma): 8.33 µM
- GI50 (OVCAR-3 ovarian): 2.21 µM
- TGI (OVCAR-3 ovarian): 5.07 µM
- GI50 (UO-31 renal): 2.66 µM
- TGI (UO-31 renal): 12.7 µM
- GI50 (786-0 renal): 1.71 µM
- TGI (786-0 renal): 3.21 µM
- GI50 (PC-3 prostate): 2.27 µM
- TGI (PC-3 prostate): 7.77 µM
- GI50 (RPMI-8226 leukemia): 2.05 µM
- TGI (RPMI-8226 leukemia): 4.88 µM
- GI50 (NCI-H522 lung): 2.27 µM
- TGI (NCI-H522 lung): 5.61 µM
- GI50 (MCF7 breast): 1.38 µM
- TGI (MCF7 breast): 2.85 µM
- GI50 (HCT-116 colon): 1.67 µM
- TGI (HCT-116 colon): 3.18 µM
- GI50 (NCI-H226 lung): 4.45 µM
- TGI (NCI-H226 lung): 20.4 µM
- GI50 (HT29 colon): 1.91 µM
- TGI (HT29 colon): 4.01 µM
- GI50 (SNB-75 CNS): 2.87 µM
- TGI (SNB-75 CNS): 14.1 µM
- GI50 (A549 NSCLC): 4.98 µM
- TGI (A549 NSCLC): 20.6 µM
- GI50 (HCT-15 colon): 1.67 µM
- TGI (HCT-15 colon): 3.15 µM
- GI50 (UACC-257 melanoma): 3.52 µM
- TGI (UACC-257 melanoma): 11.8 µM
- GI50 (IGROV1 ovarian): 3.21 µM
- TGI (IGROV1 ovarian): 12.3 µM
- GI50 (EKVX NSCLC): 1.78 µM
- TGI (EKVX NSCLC): 3.97 µM
- GI50 (SK-MEL-5 melanoma): 1.73 µM
- TGI (SK-MEL-5 melanoma): 3.12 µM
- GI50 (NCI-H23 lung): 1.7 µM
- TGI (NCI-H23 lung): 3.27 µM
- GI50 (MDA-MB-435): 2.26 µM
- TGI (MDA-MB-435): 5.38 µM
- GI50 (RXF 393 renal): 2.23 µM
- TGI (RXF 393 renal): 7.24 µM
- GI50 (MDA-MB-231 breast): 1.99 µM
- TGI (MDA-MB-231 breast): 4.53 µM
- GI50 (OVCAR-8 ovarian): 2.49 µM
- TGI (OVCAR-8 ovarian): 6.12 µM
- GI50 (ACHN renal): 3.22 µM
- TGI (ACHN renal): 11.7 µM
- GI50 (OVCAR-4 ovarian): 3.7 µM
- TGI (OVCAR-4 ovarian): 14.5 µM
- GI50 (SK-OV-3 ovarian): 3.31 µM
- TGI (SK-OV-3 ovarian): 11.5 µM
- GI50 (TK-10 renal): 4.37 µM
- TGI (TK-10 renal): 17 µM
- GI50 (HL-60(TB) leukemia): 2.22 µM
- TGI (HL-60(TB) leukemia): 4.52 µM
- GI50 (T-47D breast): 2.5 µM
- TGI (T-47D breast): 9.04 µM
- GI50 (A498 renal): 12.4 µM
- TGI (A498 renal): 27.4 µM
- GI50 (HOP-62 NSCLC): 2.29 µM
- TGI (HOP-62 NSCLC): 6.21 µM
